Assay results taken from ChEMBL document CHEMBL1153927, “Benzimidazolone-based serotonin 5-HT1A or 5-HT7R ligands: synthesis and biological evaluation” (Bioorg Med Chem Lett, 2009).

Target: 5-hydroxytryptamine receptor 7 (Homo sapiens, UniProt P34969)
Assay: Inhibition of human 5HT7 receptor expressed in HEK293 cells by competitive binding assay
Assay type: cell-based

Sequence of 5-hydroxytryptamine receptor 7 (P34969 whole entry): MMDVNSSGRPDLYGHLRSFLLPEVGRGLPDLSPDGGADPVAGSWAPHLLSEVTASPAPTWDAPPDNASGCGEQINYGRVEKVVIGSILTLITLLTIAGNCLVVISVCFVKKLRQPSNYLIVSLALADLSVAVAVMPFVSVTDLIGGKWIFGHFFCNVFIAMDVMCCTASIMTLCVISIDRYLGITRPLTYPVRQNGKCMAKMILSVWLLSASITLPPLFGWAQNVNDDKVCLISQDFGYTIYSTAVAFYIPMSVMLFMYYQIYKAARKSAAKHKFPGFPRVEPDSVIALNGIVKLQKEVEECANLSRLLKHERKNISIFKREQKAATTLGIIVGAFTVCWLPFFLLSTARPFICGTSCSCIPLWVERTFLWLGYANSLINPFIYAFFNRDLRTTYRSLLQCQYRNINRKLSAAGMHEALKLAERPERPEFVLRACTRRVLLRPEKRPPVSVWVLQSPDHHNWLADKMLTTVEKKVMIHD

SMILES	Ki [nM]
O=c1[nH]c2ccccc2n1CCCCCCN1CCN(c2ccccc2)CC1	20
COc1ccccc1N1CCN(CCCn2c(=O)[nH]c3ccccc32)CC1	40
O=c1[nH]c2ccccc2n1CCCCCN1CCN(c2ccc(Cl)cc2)CC1	7
COc1ccc(-n2c(=O)n(CCCN3CCN(c4ccccc4OC)CC3)c3ccccc32)cc1	168
COc1ccc(-n2c(=O)n(CCN3CCN(c4ccccc4OC)CC3)c3ccccc32)cc1	296
COc1ccccc1N1CCN(CCn2c(=O)[nH]c3ccccc32)CC1	1840
Cc1ccccc1-n1c(=O)n(CCN2CCN(c3ccccc3)CC2)c2ccccc21	902
COc1ccccc1N1CCN(CCCCCn2c(=O)[nH]c3ccccc32)CC1	38
O=c1n(CCN2CCN(c3ccccc3)CC2)c2ccccc2n1-c1ccccc1	1230
O=c1[nH]c2ccccc2n1CCCCCN1CCN(c2ccccc2)CC1	6
O=c1[nH]c2ccccc2n1CCCN1CCN(c2ccccc2)CC1	243
COc1cccc(-n2c(=O)n(CCN3CCN(c4ccccc4C)CC3)c3ccccc32)c1	2500
O=c1[nH]c2ccccc2n1CCCCCN1CCN(c2cccc(Cl)c2)CC1	11
Cc1ccccc1N1CCN(CCn2c(=O)n(-c3ccccc3)c3ccccc32)CC1	1870
COc1ccccc1N1CCN(CCCCn2c(=O)[nH]c3ccccc32)CC1	26
COc1cccc(-n2c(=O)n(CCN3CCN(c4ccccc4)CC3)c3ccccc32)c1	864
O=c1[nH]c2ccccc2n1CCN1CCN(c2ccccc2)CC1	1030
COc1ccccc1N1CCN(Cc2ccn(-c3ccccc3C)c2)CC1	4.3
Cc1ccccc1N1CCN(CCn2c(=O)n(-c3ccccc3C)c3ccccc32)CC1	18000
COc1ccccc1N1CCN(CCCCCCn2c(=O)[nH]c3ccccc32)CC1	78
COc1ccc(-n2c(=O)n(CCN3CCN(c4ccccc4)CC3)c3ccccc32)cc1	566
O=c1[nH]c2ccccc2n1CCCCN1CCN(c2ccccc2)CC1	48
COc1ccc(-n2c(=O)n(CCCCN3CCN(c4ccccc4OC)CC3)c3ccccc32)cc1	267

Target: T1, 5-hydroxytryptamine receptor 1A (Rattus norvegicus, UniProt P19327)
T1 sequence (P19327 whole entry): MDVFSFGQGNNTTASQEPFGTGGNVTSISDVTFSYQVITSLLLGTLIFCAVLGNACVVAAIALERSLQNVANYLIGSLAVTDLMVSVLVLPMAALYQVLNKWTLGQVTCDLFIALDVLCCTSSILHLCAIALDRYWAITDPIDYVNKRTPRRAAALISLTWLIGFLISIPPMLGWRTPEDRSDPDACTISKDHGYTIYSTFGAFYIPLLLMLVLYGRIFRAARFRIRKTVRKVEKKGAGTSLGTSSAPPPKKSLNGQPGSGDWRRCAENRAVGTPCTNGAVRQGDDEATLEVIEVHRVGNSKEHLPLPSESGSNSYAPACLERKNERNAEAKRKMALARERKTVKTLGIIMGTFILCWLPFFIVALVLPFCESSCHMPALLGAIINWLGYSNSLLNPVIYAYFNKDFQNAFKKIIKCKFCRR
Assay: Inhibition of rat hippocampus 5HT1A receptor by competitive binding assay
Assay type: tissue-based

SMILES	Ki [nM]
O=c1[nH]c2ccccc2n1CCCCCCN1CCN(c2ccccc2)CC1	48
COc1ccccc1N1CCN(CCCn2c(=O)[nH]c3ccccc32)CC1	3.4
O=c1[nH]c2ccccc2n1CCCCCN1CCN(c2ccc(Cl)cc2)CC1	454
COc1ccc(-n2c(=O)n(CCCN3CCN(c4ccccc4OC)CC3)c3ccccc32)cc1	26
COc1ccc(-n2c(=O)n(CCN3CCN(c4ccccc4OC)CC3)c3ccccc32)cc1	22
COc1ccccc1N1CCN(CCn2c(=O)[nH]c3ccccc32)CC1	25
Cc1ccccc1-n1c(=O)n(CCN2CCN(c3ccccc3)CC2)c2ccccc21	636
COc1ccccc1N1CCN(CCCCCn2c(=O)[nH]c3ccccc32)CC1	33
O=c1n(CCN2CCN(c3ccccc3)CC2)c2ccccc2n1-c1ccccc1	467
O=c1[nH]c2ccccc2n1CCCCCN1CCN(c2ccccc2)CC1	269
O=c1[nH]c2ccccc2n1CCCN1CCN(c2ccccc2)CC1	26
COc1cccc(-n2c(=O)n(CCN3CCN(c4ccccc4C)CC3)c3ccccc32)c1	182
O=c1[nH]c2ccccc2n1CCCCCN1CCN(c2cccc(Cl)c2)CC1	66
Cc1ccccc1N1CCN(CCn2c(=O)n(-c3ccccc3)c3ccccc32)CC1	168
COc1ccccc1N1CCN(CCCCn2c(=O)[nH]c3ccccc32)CC1	6
COc1cccc(-n2c(=O)n(CCN3CCN(c4ccccc4)CC3)c3ccccc32)c1	646
O=c1[nH]c2ccccc2n1CCN1CCN(c2ccccc2)CC1	392
Cc1ccccc1N1CCN(CCn2c(=O)n(-c3ccccc3C)c3ccccc32)CC1	375
COc1ccccc1N1CCN(CCCCCCn2c(=O)[nH]c3ccccc32)CC1	12
COc1ccc(-n2c(=O)n(CCN3CCN(c4ccccc4)CC3)c3ccccc32)cc1	340
O=c1[nH]c2ccccc2n1CCCCN1CCN(c2ccccc2)CC1	84
COc1ccc(-n2c(=O)n(CCCCN3CCN(c4ccccc4OC)CC3)c3ccccc32)cc1	36
